Measured values reported in patent US10647675B2 (priority 2015, dated 2020).
≈ marks a conversion by molar mass, not a printed value.

Legend:
[1] = test system: Trichophyton rubrum KD-1130; assay: Antifungal activity evaluation test: minimum inhibitory concentration (MIC), broth dilution by reference to CLSI M38-A2; type: cell-based; details: KD1130, read-out: MIC (T. rubrum)
Procedure, shortened: (§1)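 Broth microdilution after CLSI M38-A2: 2-fold DMSO dilution series in MOPS-buffered RPMI 1640 pH 7.0, inoculum 2×10^3 cells/mL final. Incubated 35° C for 4 days; MIC (μg/mL) is lowest concentration giving visually ≥80% growth inhibition versus growth control.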

[2] = test system: Trichophyton mentagrophytes SM-110; assay: as above; type: cell-based; details: SM110, read-out: MIC (T. menta.)
Procedure, shortened: as §1

MIC [1] | MIC [2] | Compound
≤ 0.1 µg/mL | ≤ 0.1 µg/mL | COc1ccccc1-c1cccnc1Sc1ccc(C(F)(F)F)cc1 [I-436, 3-(2-methoxyphenyl)-2-{[4-(trifluoromethyl)phenyl]thio}pyridine]
≤ 0.1 µg/mL | ≤ 0.1 µg/mL | COc1ccccc1-c1cccnc1Oc1ccc(OCc2ccccc2)nc1 [I-171, 2-{[6-(benzyloxy)pyridin-3-yl]oxy}-3-(2-methoxyphenyl)pyridine]
≤ 0.1 µg/mL | ≤ 0.1 µg/mL | CCc1ccc(Oc2ncccc2-c2cncc(C)c2OC)cc1 [I-286, 2-(4-ethylphenoxy)-4′-methoxy-5′-methyl-3,3′-bipyridine]
≤ 0.1 µg/mL | ≤ 0.1 µg/mL | CCOCC(C)(C)c1ccc(Oc2ncccc2-c2cccnc2OC)cc1 [I-388, 2-[4-(1-ethoxy-2-methylpropan-2-yl)phenoxy]-2′-methoxy-3,3′-bipyridine]
≤ 0.1 µg/mL | ≤ 0.1 µg/mL | CCc1ccc(Oc2ncccc2-c2cccnc2OC)cc1 [I-280, 2-(4-ethylphenoxy)-2′-methoxy-3,3′-bipyridine]
0.2 to 0.78 µg/mL (≈ 0.576 to 2.25 µM) | 0.2 to 0.78 µg/mL (≈ 0.576 to 2.25 µM) | COc1ccncc1-c1cccnc1Oc1ccc(C(F)(F)F)nc1 [I-28, 4′-methoxy-2-{[6-(trifluoromethyl)pyridin-3-yl]oxy}-3,3′-bipyridine]
1.56 to 6.25 µg/mL (≈ 4.38 to 17.5 µM) | 1.56 to 6.25 µg/mL (≈ 4.38 to 17.5 µM) | FC(F)(F)c1ccc(Oc2ncccc2-c2cncc3nccn23)cc1 [I-231, 5-{2-[4-(trifluoromethyl)phenoxy]pyridin-3-yl}imidazo[1,2-a]pyrazine]
≤ 0.1 µg/mL | ≤ 0.1 µg/mL | Cc1cc(Oc2ncccc2-c2cccc3ccnn23)cnc1C(F)(F)F [I-461]
0.2 to 0.78 µg/mL (≈ 0.566 to 2.21 µM) | ≤ 0.1 µg/mL | CC(F)(F)c1ccc(Oc2ncccc2-c2cccc3ocnc23)cn1 [I-113, 4-(2-{[6-(1,1-difluoroethyl)pyridin-3-yl]oxy}-3-yl)benzo[d]oxazole]
≤ 0.1 µg/mL | ≤ 0.1 µg/mL | C=Cc1ccc(Oc2ncccc2-c2cnccc2OC)cc1 [I-258, 4′-methoxy-2-(4-vinylphenoxy)-3,3′-bipyridine]
0.2 to 0.78 µg/mL (≈ 0.626 to 2.44 µM) | 0.2 to 0.78 µg/mL (≈ 0.626 to 2.44 µM) | Cn1nccc1-c1cccnc1Oc1ccc(C(F)(F)F)cc1 [I-221, 3-(1-methyl-1H-pyrazol-5-yl)-2-[4-(trifluoromethyl)phenoxy]pyridine]
≤ 0.1 µg/mL | ≤ 0.1 µg/mL | c1cnc(Oc2cnc3c(c2)CCCC3)c(-c2cccc3c2OCC3)c1 [I-137, 3-{[3-(2,3-dihydrobenzyofuran-7-yl)pyridin-2-yl]oxy}-5,6,7,8-tetrahydroquinoline]
≤ 0.1 µg/mL | ≤ 0.1 µg/mL | COc1ccccc1-c1cccnc1Oc1cnc2c(c1)CCCCC2 [I-136, 3-{[3-(2-methoxyphenyl)pyridin-2-yl]oxy}-6,7,8,9-tetrahydro-5H-cyclohepta[b]pyridine]
0.2 to 0.78 µg/mL (≈ 0.611 to 2.38 µM) | 0.2 to 0.78 µg/mL (≈ 0.611 to 2.38 µM) | Cc1cncc(-c2cccnc2Oc2ccc(C(C)(F)F)nc2)c1 [I-93, 2-{[6-(1,1-difluoroethyl)pyridin-3-yl]oxy}-5′-methyl-3,3′-bipyridine]
0.2 to 0.78 µg/mL (≈ 0.569 to 2.22 µM) | 0.2 to 0.78 µg/mL (≈ 0.569 to 2.22 µM) | Cc1noc(-c2cccnc2Oc2ccc(C(C)(F)F)nc2)c1Cl [I-104, 4-chloro-5-(2-{[6-(1,1-difluoroethyl)pyridin-3-yl]oxy}pyridin-3-yl)-3-methylisoxazole]
≤ 0.1 µg/mL | ≤ 0.1 µg/mL | CSc1ccccc1-c1cccnc1Oc1ccc(C(F)(F)F)nc1 [I-14]
0.2 to 0.78 µg/mL (≈ 0.555 to 2.16 µM) | 0.2 to 0.78 µg/mL (≈ 0.555 to 2.16 µM) | COc1ccccc1-c1ccc(C)nc1Oc1ccc(C(F)(F)F)nc1 [I-67]
≤ 0.1 µg/mL | ≤ 0.1 µg/mL | COC(=O)CN(C)c1ncc(Oc2ncccc2-c2ccc(F)cc2OC)cn1 [I-192, methyl 2-[(5-{[3-(4-fluoro-2-methoxyphenyl)pyridin-2-yl]oxy}-pyrimidin-2-yl)(methyl)amino]acetate]
≤ 0.1 µg/mL | ≤ 0.1 µg/mL | COc1ccncc1-c1cccnc1Oc1ccc(C(C)(F)F)c(F)c1 [I-304]
≤ 0.1 µg/mL | ≤ 0.1 µg/mL | COc1ncccc1-c1cccnc1Oc1ccc(C(C)C)cc1 [I-447]
≤ 0.1 µg/mL | ≤ 0.1 µg/mL | CCc1ccc(Oc2ncccc2-c2cncc(C(F)F)c2OC)cc1 [I-288, 5′-(difluoromethyl)-2-(4-ethylphenoxy)-4′-methoxy-3,3′-bipyridine]
≤ 0.1 µg/mL | ≤ 0.1 µg/mL | COc1ccc(F)cc1-c1cccnc1Oc1ccc(C(F)(F)F)nc1 [I-11, 3-(5-fluoro-2-methoxyphenyl)-2-{[6-(trifluoromethyl)pyridin-3-yl]oxy}pyridine]
0.2 to 0.78 µg/mL (≈ 0.508 to 1.98 µM) | 0.2 to 0.78 µg/mL (≈ 0.508 to 1.98 µM) | COCC(F)(F)c1ccc(Oc2ncccc2-c2cccc3cccnc23)cn1 [I-169, 8-(2-{[6-(1,1-difluoro-2-methoxyethyl)pyridin-3-yl]oxy}pyridin-3-yl)quinoline]
≤ 0.1 µg/mL | ≤ 0.1 µg/mL | COc1cc(F)ccc1-c1cccnc1Oc1ccc(C(F)(F)Cn2cccn2)nc1 [I-157, 2-{(6-[1,1-difluoro-2-(1H-pyrazol-1-yl)ethyl]pyridin-3-yl)oxy}-3-(4-fluoro-2-methoxyphenyl)pyridine]

MIC [1] | MIC [2] | Compound
0.2 to 0.78 µg/mL (≈ 0.552 to 2.15 µM) | 0.2 to 0.78 µg/mL (≈ 0.552 to 2.15 µM) | CC(F)(F)c1ccc(Oc2ncccc2-c2ccccc2C(F)F)cn1 [I-86, 2-{[6-(1,1-difluoroethyl)pyridin-3-yl]oxy}-3-[2-(difluoromethyl)phenyl]pyridine]
≤ 0.1 µg/mL | 0.2 to 0.78 µg/mL (≈ 0.54 to 2.11 µM) | Cc1cnn2c(-c3cccnc3Oc3ccc(C(F)(F)F)nc3)cccc12 [I-53, 3-methyl-7-(2-{[6-(trifluoromethyl)pyridin-3-yl]oxy}pyridin-3-yl)-pyrazolo[1,5-a]pyridine]
≤ 0.1 µg/mL | ≤ 0.1 µg/mL | COc1cccc(-c2cccnc2Oc2ccc(C(F)(F)F)cc2)n1 [I-213, 6-methoxy-2′-[4-(trifluoromethyl)phenoxy]-2,3′-bipyridine]
1.56 to 6.25 µg/mL (≈ 4.2 to 16.8 µM) | 0.2 to 0.78 µg/mL (≈ 0.539 to 2.1 µM) | CNCC(F)(F)c1ccc(Oc2ncccc2-c2ccccc2OC)cn1 [I-146, 2,2-difluoro-2-(5-{[3-(2-methoxyphenyl)pyridin-2-yl]oxy}-pyridin-2-yl)-N-methylethanamine]
0.2 to 0.78 µg/mL (≈ 0.571 to 2.23 µM) | 0.2 to 0.78 µg/mL (≈ 0.571 to 2.23 µM) | CCOCCc1ccc(Oc2ncccc2-c2cnccc2OC)cc1 [I-274, 2-[4-(2-ethoxyethyl)phenoxy]-4′-methoxy-3,3′-bipyridine]
0.2 to 0.78 µg/mL (≈ 0.485 to 1.89 µM) | 0.2 to 0.78 µg/mL (≈ 0.485 to 1.89 µM) | COCC(F)(F)c1ccc(Oc2ncccc2-c2cc(F)cc3nccnc23)cn1 [I-170, 5-(2-{[6-(1,1-difluoro-2-methoxyethyl)pyridin-3-yl]oxy}pyridin-3-yl)-7-fluoroquinoxaline]
≤ 0.1 µg/mL | ≤ 0.1 µg/mL | COc1ncccc1-c1cccnc1Oc1cnc(N(C)Cc2ccccc2)nc1 [I-381, N-benzyl-5-{[2′-methoxy-(3,3′-bipyridin)-2-yl]oxy}-N-methylpyrimidin-2-amine]
≤ 0.1 µg/mL | ≤ 0.1 µg/mL | COc1ncccc1-c1cccnc1Oc1ccc(CCOC(=O)N(C)C)cc1 [I-398, 4-{[(2′-methoxy-(3,3′-bipyridin)-2-yl]oxy}phenethyl dimethylcarbamate]
≤ 0.1 µg/mL | ≤ 0.1 µg/mL | CC(F)(F)c1ccc(Oc2ncccc2-c2cncc3ccccc23)cn1 [I-109, 4-(2-{[6-(1,1-difluoroethyl)pyridin-3-yl]oxy}pyridin-3-yl)isoquinoline]
≤ 0.1 µg/mL | ≤ 0.1 µg/mL | Cc1ccncc1-c1cccnc1Oc1ccc(C(C)(F)F)cc1 [I-299, 2-[4-(1,1-difluoroethyl)-phenoxy]-4′-methyl-3,3′-bipyridine]
1.56 to 6.25 µg/mL (≈ 4.74 to 19 µM) | 1.56 to 6.25 µg/mL (≈ 4.74 to 19 µM) | CCc1ccc(Oc2ncccc2-c2cc3nccn3cc2C)cc1 [I-293, 7-[2-(4-ethylphenoxy)pyridin-3-yl]-6-methylimidazo[1,2-a]pyridine]
≤ 0.1 µg/mL | ≤ 0.1 µg/mL | COc1ccccc1-c1nccnc1Oc1ccc2c(c1)CCCC2 [I-315]
0.2 to 0.78 µg/mL (≈ 0.628 to 2.45 µM) | ≤ 0.1 µg/mL | CCc1ccc(Oc2ncccc2-c2cccc3c2OCC3)cn1 [I-125]
0.2 to 0.78 µg/mL (≈ 0.534 to 2.08 µM) | 0.2 to 0.78 µg/mL (≈ 0.534 to 2.08 µM) | COCC(F)(F)c1ccc(Oc2ncncc2-c2cccnc2OC)cn1 [I-361, 4-{[6-(1,1-difluoro-2-methoxyethyl)pyridin-3-yl]oxy}-5-(2-methoxypyridin-3-yl)pyrimidine]
≤ 0.1 µg/mL | ≤ 0.1 µg/mL | COc1cccc(-c2cccnc2Oc2ccc(C(F)(F)F)nc2)c1 [I-2, 3-(3-methoxyphenyl)-2-{[6-(trifluoromethyl)pyridin-3-yl]oxy}pyridine]
≤ 0.1 µg/mL | ≤ 0.1 µg/mL | COc1cc(F)ccc1-c1cccnc1Oc1ccc(Cl)nc1 [I-366]
≤ 0.1 µg/mL | ≤ 0.1 µg/mL | COCCN(C)c1ncc(Oc2ncccc2-c2cccc3c2OCC3)cn1 [I-450]
≤ 0.1 µg/mL | ≤ 0.1 µg/mL | COc1ccccc1-c1cncnc1Oc1ccc(C(F)F)cc1 [I-322, 4-[4-(difluoromethyl)phenoxy]-5-(2-methoxyphenyl)pyrimidine]
≤ 0.1 µg/mL | ≤ 0.1 µg/mL | COc1c(Cl)cncc1-c1cccnc1Oc1ccc(C(F)F)cc1 [I-355, 5′-chloro-2-[4-(difluoromethyl)phenoxy]-4′-methoxy-3,3′-bipyridine]
0.2 to 0.78 µg/mL (≈ 0.49 to 1.91 µM) | 0.2 to 0.78 µg/mL (≈ 0.49 to 1.91 µM) | COc1ccccc1-c1cccnc1Oc1ccc(C(F)(F)Cn2ccnc2)nc1 [I-351, 2-({6-[1,1-difluoro-2-(1H-imidazol-1-yl)ethyl]pyridin-3-yl}oxy)-3-(2-methoxyphenyl)pyridine]
≤ 0.1 µg/mL | ≤ 0.1 µg/mL | COc1c(F)cccc1-c1cccnc1Oc1ccc(C(F)(F)F)nc1 [I-13, 3-(3-fluoro-2-methoxyphenyl)-2-{[6-(trifluoromethyl)pyridin-3-yl]oxy}pyridine]
≤ 0.1 µg/mL | ≤ 0.1 µg/mL | COc1ncccc1-c1nccnc1Oc1ccc2c(c1)CCCC2 [I-316, 2-(2-methoxypyridin-3-yl)-3-[(5,6,7,8-tetrahydronaphthalen-2-yl)oxy]pyrazine]
0.2 to 0.78 µg/mL (≈ 0.549 to 2.14 µM) | 0.2 to 0.78 µg/mL (≈ 0.549 to 2.14 µM) | COC(=O)CCc1ccc(Oc2ncccc2-c2cnccc2OC)cc1 [I-279, methyl 3-(4-{[4′-methoxy-3,3′-bipyridin-2-yl]oxy}phenyl)propionate]
